# Assay results taken from patent publication US7927411B2, “Compound, ink, process and use” (Fujifilm Imaging Colorants Limited, priority 2007, dated 2011).
# What was measured:
# [1] = Physical form: liquid crystalline behaviour in aqueous solution; type: physicochemical; conditions: for Dye (1) at a dye concentration of above about 25% by weight
# Text: This is anticipated to correspond to enhanced stability against precipitation and reduced dye degradation for concentrated solutions containing the compounds used in the present invention. The difference in liquid crystalline behaviour is surprising given the structural similarity of Dye (1) and Comparative Dye (1).
# [2] = Solubility of dye in water; type: physicochemical
solubility in water [2],solubility in water relative to Comparative Dye (1) ([2]; ratio to Comparative Dye (1)),Structure (SMILES),liquid crystalline behaviour [1]
15 % of dye by weight,,"O=C(O)c1cc(/N=N/c2ccc(Nc3nc(NCCO)nc(Nc4ccc(/N=N/c5cc(S(=O)(=O)O)c6cccc(S(=O)(=O)O)c6c5)cc4)n3)cc2)cc(C(=O)O)c1 [Comparative Dye (1), reference compound]",no liquid crystalline behaviour
30 % of dye by weight,twice,O=C(O)c1cc(/N=N/c2ccc(Nc3nc(Nc4ccc(/N=N/c5cc(S(=O)(=O)O)c6cccc(S(=O)(=O)O)c6c5)cc4)nc(N(CCO)CCO)n3)cc2)cc(C(=O)O)c1 [Dye (1)],exhibited liquid crystalline characteristics
